Experimental data: US11510886B2, “Metformin amino acid compounds and methods of using the same” (Laboratorios Silancs S.A. DE C.V., priority 2016, dated 2022)
Entries after “also recorded” stand apart in the source; their conditions may differ. Structures can show the parent of a compound that is named as a salt.

How the values were obtained:
GPBP = target: T1, GPBP (Mus musculus, UniProt Q9EQG9); experiment: GPBP phosphorylation state in C2C12 myotubes (Western blot); type: cell-based, Mice; details: 3 hours (FIG. 65)
T1 construct: endogenous in cells; host or cells: C2C12 myotubes
T1 sequence (Q9EQG9 1-624): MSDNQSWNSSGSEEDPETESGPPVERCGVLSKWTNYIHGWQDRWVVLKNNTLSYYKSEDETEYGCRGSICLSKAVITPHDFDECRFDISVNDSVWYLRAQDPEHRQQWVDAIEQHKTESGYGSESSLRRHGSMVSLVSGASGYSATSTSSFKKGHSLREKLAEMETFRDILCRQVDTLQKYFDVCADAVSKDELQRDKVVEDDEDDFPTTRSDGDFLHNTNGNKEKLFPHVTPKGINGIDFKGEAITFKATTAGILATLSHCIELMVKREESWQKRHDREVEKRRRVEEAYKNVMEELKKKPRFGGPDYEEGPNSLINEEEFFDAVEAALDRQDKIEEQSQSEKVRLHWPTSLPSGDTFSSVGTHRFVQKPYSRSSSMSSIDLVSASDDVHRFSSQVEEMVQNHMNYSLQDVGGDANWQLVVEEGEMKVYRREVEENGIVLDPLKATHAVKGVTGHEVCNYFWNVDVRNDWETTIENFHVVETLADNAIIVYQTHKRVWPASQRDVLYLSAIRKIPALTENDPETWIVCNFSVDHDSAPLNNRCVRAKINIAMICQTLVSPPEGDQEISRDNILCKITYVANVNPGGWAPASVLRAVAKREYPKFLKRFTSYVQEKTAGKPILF
Method: FIG. 65. […]. Similar quantities of each extract were analyzed using Western blot (SDS-PAGE and electrotransfer), with the indicated antibodies and chemiluminescence (ECL Prime, GE Healthcare). The arrow marks a dephosphorylated band, with higher abundance in SLN10-treated cells than in non-treated or SLN1-treated cells.

GPBP and VAPA = experiment: Colocalization of GPBP with VAPA in C2C12 cells; type: cell-based, Mice; details: C2C12, 10 mM, 16 hours; p=0.0093 Control vs. SLN1, p=0.0001 Control vs. SLN10, p=0.0283 SLN10 vs SLN1
Method: FIG. 74A. […] In FIG. 74A, C2C12 cells were differentiated for 3 days in DMEM supplemented with 2% horse serum. […] Subsequently, cells were washed with PBS (3×5 minutes) and incubated with mouse secondary anti-IgG antibodies, conjugated with Alexa Fluor 488, and goat anti-IgG antibodies, conjugated with TRITC (Molecular Probes) for 1 hour at RM in the dark; then, cells were washed again with PBS (3×5 minutes) and mounted for confocal microscopy observation. Afterwards, the images obtained were analyzed with the WCIF ImageJ software to quantify colocalization quotient between GPBP and VAPA. In the third column, the points at which there are similar expression levels of both GPBP and VAPA appear in white.

[1] = system: RAW264.7 macrophages and L1 adipocytes co-cultures; experiment: Cytometric analysis of RAW + L1 co-cultures; type: cell-based, Mice; details: for EVENTS, F4/80^+CD86^− (first line) / %, F4/80^+CD86^− (second line) / EVENTS, F4/80^+CD86^− (second line) / %, F4/80^+CD86^− (first line) / %, F4/80^+: 10 mM, 24 hours; for %, F4/80^+CD86^− (second line): M1 macrophage percentage of total macrophages; for EVENTS, F4/80^+CD86^− (second line): M1 macrophages; for %, F4/80^+CD86^− (first line): of total macrophages; for %, F4/80^+: total macrophages; for reduction of the proportion of macrophages in M1: co-cultures
Description: One of the key pathogenic events in hyperglycemia of obese patients is the emergence of a pathogenic feedback between adipose tissue and macrophages of the immune system, in which adipocytes attract macrophages, polarizing them to pro-inflammatory phenotypes, and polarized macrophages secrete cytokines, promoting resistance to adipocyte insulin (Johnson A M, Olefsky J M. Cell. 2013; 152:673-84). To reproduce this pathogenic dialogue ex vivo and investigate the activity of SLNs compounds thereon, cytometric techniques allowing the discrimination between these cell lines and determination of phenotypic changes in macrophages in response to individual compounds (Table 18) were used.
RAW264.7 macrophages were added to adipocyte cultures, and the co-culture was maintained in DMEM supplemented with 10% FBS and antibiotics for 8 hours. […]. Next, cells were washed with PBS and collected by mechanical methods (without trypsin) to prevent protein loss from the cell surface. Cells were then blocked (FcBlock, BD Pharmingen) for 15 minutes at 4° C., and incubated for 20-30 minutes at 4° C. in darkness with anti-mouse F4/80 (eBioscience), conjugated with PerCP-Cy5.5, to mark macrophages, and anti-mouse CD86 (BioLegend), conjugated with PE-Cy7.7, to mark macrophages M1 specifically. Afterwards, cells were washed three times with PBS and centrifuged (500×g, 10 minutes, 4° C.), after which they were analyzed with a cytometer (FACSVerse, BD). In Table 6, the M1 macrophage percentage of the total macrophages analyzed (burgundy) for each treatment is highlighted in yellow.

(NZB×NZW) F1 mice = experiment: Proteinuria and renal lupus in (NZB×NZW) F1 mice; type: in vivo; details: for number of mice with a pathological grade above 3: kidneys at week 35 (FIG. 84)
C2C12 myotubes = experiment: Glucose in C2C12 myotubes cultured with M1 macrophage conditioned medium; type: cell-based, Mice; details: macrophages treated with 10 mM, glucose adjusted to 100 mg/100 mL (FIG. 95)
Method: FIG. 95. C2C12 myotubes, treated with a conditioned RAW264.7 M1 macrophages medium (stimulated with LPS and IFN-γ [M1]), accumulate glucose in the culture medium: SLN compounds reduce the “hyperglycemic” effect of the M1 medium. […]; then, the culture media were collected, and their glucose concentration adjusted to 100 mg/100 mL and used to culture C2C12 myoblasts that had been previously differentiated to myotubes in DMEM supplemented with 2% horse serum for 5 days. The glucose concentration in myotubes was determined at several times with a Glucocard (Arkray). C2C12 myotubes, cultured with conditioned media of non-stimulated (cells) macrophages, or similarly stimulated but not treated with a SLN (M1), were used as controls. The initial glucose levels (time 0) are used as a reference (100%) in each of the series.
[…]. Then the culture media were collected, their glucose concentration adjusted to 100 mg/100 mL and used to culture C2C12 myoblasts that had been previously differentiated to myotubes in DMEM supplemented with 2% horse serum for 5 days. The glucose concentration of the myotube cultures was determined at different times with Glucocard (Arkray). The controls used were the C2C12 cultured with media conditioned with no stimulated macrophages (cells) or with M1 conditioned media. The initial glucose levels (time 0) were used as a reference (100%) in each series.

[2] = STZ-diabetic male rats, mean ± SD; for Absolute body weight, Day −1 / Absolute body weight, Day −2 (distribution of groups): before first TI/RI administration

Row | Molecule | colocalization of GPBP with VAPA (GPBP and VAPA) | EVENTS, F4/80^+CD86^− (first line) [1] | %, F4/80^+CD86^− (second line) [1] [%] | EVENTS, F4/80^+CD86^− (second line) [1] | %, F4/80^+CD86^− (first line) [1] [%] | %, F4/80^+ [1] [%] | reduction of the proportion of macrophages in M1 [1] | number of mice with a pathological grade above 3 ((NZB×NZW) F1 mice) | Absolute body weight, Day −1 [2] [g] | Absolute body weight, Day −2 (distribution of groups) [2] [g] | other results
1 | CN(C)C(=N)N=C(N)N [Metformin hydrochloride, metformin hydrochloride, reference compound] | reduced significantly | 551 | 65.76 | 1,058 | 34.24 | 100.00 | lowest activity | 7 | 210.43 ± 11.90 | 223.73 ± 10.88 | GPBP phosphorylation state in myotubes (GPBP): barely altered the phosphorylation state; deaths ((NZB×NZW) F1 mice; from week 33 onwards): began to die; glucose concentration in myotubes kept in M1 macrophage-conditioned medium (C2C12 myotubes; listed as SLN1, hydrochloride): slowed progression towards “hyperglycemia”; glucose concentration in myotubes kept in M1 macrophage-conditioned medium (C2C12 myotubes; listed as metformin HCl, hydrochloride): slowed down the progression towards hyperglycemia; Absolute body weight, Day −3 (before STZ administration) ([2]; baseline before STZ and before first TI/RI administration): 231.30 ± 11.83 g
2 | metformin lysinate | reduced significantly; also recorded: more intensely than SLN1 | 566 | 62.96 | 962 | 37.04 | 100.00 | strongest effect | 3 | 212.73 ± 0.23 | 217.67 ± 9.71 | GPBP phosphorylation state in myotubes (GPBP; listed as SLN10): induce GPBP dephosphorylation; also recorded: induced a remarkable GPBP dephosphorylation; proteinuria ((NZB×NZW) F1 mice; 100 mg/kg/day, IP 5 days from week 16, then oral in drinking water, vs control, listed as SLN10): most effective; also recorded: significantly less proteinuria; also recorded: reduced proteinuria; autoantibody (anti-ssDNA IgG) titers ((NZB×NZW) F1 mice; FIG. 85, Control vs. SLN10 p=0.0238): reduces antibodies titers; also recorded: reduced titers by half; circulating GPBP levels (cGPBP) ((NZB×NZW) F1 mice; plasma, before steady increase of proteinuria (FIG. 86)): showed no increase; glucose concentration in myotubes kept in M1 macrophage-conditioned medium (C2C12 myotubes): reduced the glucose concentration to hypoglycemic levels; glucose concentration in myotubes kept in M1 macrophage-conditioned medium (C2C12 myotubes; listed as SLN10): took them to “hypoglycemic” levels
